The values below come from patent publication US20230416227A1, “PLASMA KALLIKREIN INHIBITORS” (Merck Sharp & Dohme LLC, priority 2020, published 2023).

This experiment deals with T1, Human plasma kallikrein (Homo sapiens, UniProt P03952).
T1 construct: yields a heavy chain (371 amino acids) and a light chain (248 amino acids); purchased Enzyme Research Laboratories
Description: Plasma Kallikrein Assay. Conditions: purified Human plasma kallikrein 0.5 nM, substrate Acetyl-K-P-R-AFC, pH 7.4. It is filed as biochemical. On the procedure:
The effectiveness of a compound of the present invention as an inhibitor of plasma kallikrein can be determined using a relevant purified serine protease, and an appropriate synthetic substrate. The rate of hydrolysis of the chromogenic or fluorogenic substrate by the relevant serine protease was measured both in the absence and presence of compounds of the present invention. Assays were conducted at rt or at 37° C. […] A decrease in the rate of fluorescence change in the presence of inhibitor is indicative of enzyme inhibition. Such methods are known to one skilled in the art. The results of this assay are expressed as the half-maximal inhibitory concentrations (IC50), or the inhibitory constant, Ki.
Plasma kallikrein determinations were made in 50 mM HEPES buffer at pH 7.4 containing 150 mM NaCl, 5 mM CaCl2), and 0.1% PEG 8000 (polyethylene glycol; Fisher Scientific). […]
Times required to achieve equilibration between enzyme and inhibitor were determined in control experiments. The reactions were performed under linear progress curve conditions and fluorescence increase measured at 405 Ex/510 Em nm. […] IC50 was determined by inflection point from a four parameter logistic curve fit. Ki was calculated using the Cheng Prusoff equation, Ki=IC50/(1+([S]/Km)).

T1 sequence (P03952 391-638 limits assumed): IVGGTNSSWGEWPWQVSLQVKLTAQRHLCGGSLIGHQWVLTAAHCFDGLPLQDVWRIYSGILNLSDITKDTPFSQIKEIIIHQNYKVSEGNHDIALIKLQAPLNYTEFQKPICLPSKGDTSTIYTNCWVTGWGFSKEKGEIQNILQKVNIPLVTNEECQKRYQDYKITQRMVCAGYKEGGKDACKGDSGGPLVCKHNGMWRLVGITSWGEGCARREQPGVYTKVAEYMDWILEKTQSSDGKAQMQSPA
T1 sequence (P03952 20-390 partner limits assumed): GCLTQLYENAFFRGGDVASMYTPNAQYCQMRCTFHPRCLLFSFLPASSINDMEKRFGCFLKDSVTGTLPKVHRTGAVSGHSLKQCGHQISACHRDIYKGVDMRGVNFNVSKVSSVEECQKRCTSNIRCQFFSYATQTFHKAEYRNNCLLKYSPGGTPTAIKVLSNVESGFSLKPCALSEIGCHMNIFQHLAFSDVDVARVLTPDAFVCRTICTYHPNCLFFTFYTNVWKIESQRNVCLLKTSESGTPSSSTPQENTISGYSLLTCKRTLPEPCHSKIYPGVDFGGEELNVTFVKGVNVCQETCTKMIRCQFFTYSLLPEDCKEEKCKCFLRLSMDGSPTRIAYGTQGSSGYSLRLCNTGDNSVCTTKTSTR

What is called IC50 is the point on the concentration scale where inhibition reaches its midpoint. The low end stands for greater potency in that assay, the high end for weaker potency in that assay. For the compound `NC(=O)[C@@H]1CCCN1c1ccc(Cn2cc(NC(=O)c3cncc(-c4c(C(F)F)ccc(Cl)c4F)n3)cn2)cn1` [Example 116, (S)-N-(1-((6-(2-Carbamoylpyrrolidin-1-yl)pyridin-3-yl)methyl)-1H-pyrazol-4-yl)-6-(3-chloro-6-(difluoromethyl)-2-fluorophenyl)pyrazine-2-carboxamide], 3.6 nM corresponded to half-maximal inhibition (IC50).

In turn, `O=C(Nc1cnn(Cc2ccc(N3CCC4OCCC43)nc2)c1)c1cncc(-c2c(C(F)F)ccc(Cl)c2F)n1` (stereo not shown) [Example 117, 6-(3-Chloro-6-(difluoromethyl)-2-fluorophenyl)-N-(1-((6-(hexahydro-4H-furo[3,2-b]pyrrol-4-yl)pyridin-3-yl)methyl)-1H-pyrazol-4-yl)pyrazine-2-carboxamide] returned an IC50 of 5.4 nM. The compound `O=C(Nc1cnn(Cc2ccc(N3CCCC3CO)nc2)c1)c1cncc(-c2c(C(F)F)ccc(Cl)c2F)n1` (stereo not shown) [Example 118, 6-(3-Chloro-6-(difluoromethyl)-2-fluorophenyl)-N-(1-((6-(2-(hydroxymethyl)pyrrolidin-1-yl)pyridin-3-yl)methyl)-1H-pyrazol-4-yl)pyrazine-2-carboxamide] came in with an IC50 of 12.5 nM. This IC50 is about 2.3-fold higher than that of the compound before. The compound `COC[C@@H]1CCCN1c1ccc(Cn2cc(NC(=O)c3cncc(-c4c(C(F)F)ccc(Cl)c4F)n3)cn2)cn1` [Example 120, (S)-6-(3-Chloro-6-(difluoromethyl)-2-fluorophenyl)-N-(1-((6-(2-(methoxymethyl)pyrrolidin-1-yl)pyridin-3-yl)methyl)-1H-pyrazol-4-yl)pyrazine-2-carboxamide] had an IC50 of 17.8 nM. `CN(CCO)c1ccc(Cn2cc(NC(=O)c3cncc(-c4c(C(F)F)ccc(Cl)c4F)n3)cn2)cn1` [Example 121, 6-(3-Chloro-6-(difluoromethyl)-2-fluorophenyl)-N-(1-((6-((2-hydroxyethyl)(methyl)amino)pyridin-3-yl)methyl)-1H-pyrazol-4-yl)pyrazine-2-carboxamide]: the midpoint of inhibition, the IC50, lay at 18.4 nM. With `CN(C)C(=O)[C@@H]1CCCN1c1ccc(Cn2cc(NC(=O)c3cncc(-c4c(C(F)F)ccc(Cl)c4F)n3)cn2)cn1` [Example 125, (S)-6-(3-Chloro-6-(difluoromethyl)-2-fluorophenyl)-N-(1-((6-(2-(dimethylcarbamoyl)pyrrolidin-1-yl)pyridin-3-yl)methyl)-1H-pyrazol-4-yl)pyrazine-2-carboxamide], half-maximal inhibition (IC50) was put at 28.3 nM. In turn, `O=C(Nc1cnn(Cc2ccc(N3CC[C@H]3CO)nc2)c1)c1cncc(-c2c(C(F)F)ccc(Cl)c2F)n1` [Example 126, (S)-6-(3-Chloro-6-(difluoromethyl)-2-fluorophenyl)-N-(1-((6-(2-(hydroxymethyl)azetidin-1-yl)pyridin-3-yl)methyl)-1H-pyrazol-4-yl)pyrazine-2-carboxamide] displayed a 50% inhibitory concentration (IC50) of 30.5 nM. `O=C(Nc1cnn(Cc2ccc(N3CC4C(C3)C4(F)F)nc2)c1)c1cncc(-c2c(C(F)F)ccc(Cl)c2F)n1` (stereo not shown) [Example 127, 6-(3-Chloro-6-(difluoromethyl)-2-fluorophenyl)-N-(1-((6-(6,6-difluoro-3-azabicyclo[3.1.0]hexan-3-yl)pyridin-3-yl)methyl)-1H-pyrazol-4-yl)pyrazine-2-carboxamide]: the IC50 was determined as 31.3 nM.

In turn, `O=C(Nc1cnn(Cc2ccc(N3CCNC4(CC4)C3)nc2)c1)c1cncc(-c2c(C(F)F)ccc(Cl)c2F)n1` [Example 128, N-(1-((6-(4,7-Diazaspiro[2.5]octan-7-yl)pyridin-3-yl)methyl)-1H-pyrazol-4-yl)-6-(3-chloro-6-(difluoromethyl)-2-fluorophenyl)pyrazine-2-carboxamide] displayed an IC50 of 32.2 nM.

In turn, `NC(=O)C1CCCN(c2ccc(Cn3cc(NC(=O)c4cncc(-c5c(C(F)F)ccc(Cl)c5F)n4)cn3)cn2)C1` (stereo not shown) [Example 129, N-(1-((6-(3-Carbamoylpiperidin-1-yl)pyridin-3-yl)methyl)-1H-pyrazol-4-yl)-6-(3-chloro-6-(difluoromethyl)-2-fluorophenyl)pyrazine-2-carboxamide] yielded an IC50 of 32.8 nM.

Turning to `Cn1cnc(C2CCCN2c2ccc(Cn3cc(NC(=O)c4cncc(-c5c(C(F)F)ccc(Cl)c5F)n4)cn3)cn2)n1` (stereo not shown) [Example 130, 6-(3-Chloro-6-(difluoromethyl)-2-fluorophenyl)-N-(1-((6-(2-(1-methyl-1H-1,2,4-triazol-3-yl)pyrrolidin-1-yl)pyridin-3-yl)methyl)-1H-pyrazol-4-yl)pyrazine-2-carboxamide], the concentration for half-maximal inhibition (IC50) amounted to 35 nM. This IC50 and that of the compound before are within 1.5-fold of each other. As to `CC(=O)N1CC[C@H]2CN(c3ccc(Cn4cc(NC(=O)c5cncc(-c6c(C(F)F)ccc(Cl)c6F)n5)cn4)cn3)[C@H]2C1` [Example 131, N-(1-((6-((1R,6S)-3-Acetyl-3,8-diazabicyclo[4.2.0]octan-8-yl)pyridin-3-yl)methyl)-1H-pyrazol-4-yl)-6-(3-chloro-6-(difluoromethyl)-2-fluorophenyl)pyrazine-2-carboxamide], the IC50 amounted to 37.6 nM. The IC50 values of the last two compounds are within 1.5-fold of each other. With `O=C(Nc1cnn(Cc2ccc(N3CCC(CO)C3)nc2)c1)c1cncc(-c2c(C(F)F)ccc(Cl)c2F)n1` (stereo not shown) [Example 132, 6-(3-Chloro-6-(difluoromethyl)-2-fluorophenyl)-N-(1-((6-(3-(hydroxymethyl)pyrrolidin-1-yl)pyridin-3-yl)methyl)-1H-pyrazol-4-yl)pyrazine-2-carboxamide], the IC50 was 49 nM. Under `CC(=O)N1CC[C@@H]2CN(c3ccc(Cn4cc(NC(=O)c5cncc(-c6c(C(F)F)ccc(Cl)c6F)n5)cn4)cn3)[C@@H]2C1` [Example 133, N-(1-((6-((1S,6R)-3-Acetyl-3,8-diazabicyclo[4.2.0]octan-8-yl)pyridin-3-yl)methyl)-1H-pyrazol-4-yl)-6-(3-chloro-6-(difluoromethyl)-2-fluorophenyl)pyrazine-2-carboxamide] stands 49.5 nM; under `O=C(Nc1cnn(Cc2cnc(N3CCCC3CN3CCOCC3)nc2)c1)c1cncc(-c2c(C(F)F)ccc(Cl)c2F)n1` (stereo not shown) [Example 153, 6-(3-Chloro-6-(difluoromethyl)-2-fluorophenyl)-N-(1-((2-(2-(morpholinomethyl)pyrrolidin-1-yl)pyrimidin-5-yl)methyl)-1H-pyrazol-4-yl)pyrazine-2-carboxamide], 1.1 nM; under `O=C(Nc1cnn(Cc2cnc(N3CCCC3CNCC(F)F)nc2)c1)c1cncc(-c2c(C(F)F)ccc(Cl)c2F)n1` (stereo not shown) [Example 157, 6-(3-Chloro-6-(difluoromethyl)-2-fluorophenyl)-N-(1-((2-(2-(((2,2-difluoroethyl)amino)methyl)pyrrolidin-1-yl)pyrimidin-5-yl)methyl)-1H-pyrazol-4-yl)pyrazine-2-carboxamide], 9.3 nM.

Compound `O=C(Nc1cnn(Cc2cnc(N3CCCC3CN3C[C@H](F)[C@@H](F)C3)nc2)c1)c1cncc(-c2c(C(F)F)ccc(Cl)c2F)n1` (stereo partly drawn) [Example 158, 6-(3-Chloro-6-(difluoromethyl)-2-fluorophenyl)-N-(1-((2-(2-(((35,4S)-3,4-difluoropyrrolidin-1-yl)methyl)pyrrolidin-1-yl)pyrimidin-5-yl)methyl)-1H-pyrazol-4-yl)pyrazine-2-carboxamide] registered an IC50 of 9.5 nM. The IC50 values of the last two compounds are within 1.5-fold of each other. In turn, `CC(c1cnc(N2CC[C@H]2CN2C[C@H](O)C[C@H]2C)nc1)n1cc(NC(=O)c2cncc(-c3c(C(F)F)ccc(Cl)c3F)n2)cn1` (stereo partly drawn) [Example 164, 6-(3-Chloro-6-(difluoromethyl)-2-fluorophenyl)-N-(1-(1-(2-((S)-2-(((2R,4R)-4-hydroxy-2-methylpyrrolidin-1-yl)methyl)azetidin-1-yl)pyrimidin-5-yl)ethyl)-1H-pyrazol-4-yl)pyrazine-2-carboxamide] displayed a half-inhibitory concentration (IC50) of 3.4 nM. This IC50 is about 2.8-fold lower than that of the compound before. In turn, `CC(c1cnc(N2CC[C@H]2CN2CC(O)C2)nc1)n1cc(NC(=O)c2cncc(-c3c(C(F)F)ccc(Cl)c3F)n2)cn1` (stereo partly drawn) [Example 170, 6-(3-Chloro-6-(difluoromethyl)-2-fluorophenyl)-N-(1-(1-(2-((S)-2-((3-hydroxyazetidin-1-yl)methyl)azetidin-1-yl)pyrimidin-5-yl)ethyl)-1H-pyrazol-4-yl)pyrazine-2-carboxamide] had an IC50 of 1.6 nM. In turn, `CC(c1cnc(N2CC[C@H]2CN2CC(F)C2)nc1)n1cc(NC(=O)c2cncc(-c3c(C(F)F)ccc(Cl)c3F)n2)cn1` (stereo partly drawn) [Example 171, 6-(3-Chloro-6-(difluoromethyl)-2-fluorophenyl)-N-(1-(1-(2-((S)-2-((3-fluoroazetidin-1-yl)methyl)azetidin-1-yl)pyrimidin-5-yl)ethyl)-1H-pyrazol-4-yl)pyrazine-2-carboxamide] displayed an IC50 of 4.9 nM. This IC50 is about 3.1-fold higher than that of the compound before.

The compound `CC(c1cnc(N2CC[C@H]2CN2CC(O)(C3CC3)C2)nc1)n1cc(NC(=O)c2cncc(-c3c(C(F)F)ccc(Cl)c3F)n2)cn1` (stereo partly drawn) [Example 172, 6-(3-Chloro-6-(difluoromethyl)-2-fluorophenyl)-N-(1-(1-(2-((S)-2-((3-cyclopropyl-3-hydroxyazetidin-1-yl)methyl)azetidin-1-yl)pyrimidin-5-yl)ethyl)-1H-pyrazol-4-yl)pyrazine-2-carboxamide] yielded an IC50 of 1.8 nM. Against the preceding compound, the IC50 is about 2.7-fold lower. With `CC(c1cnc(N2CC[C@H]2CN2CC(C)(O)C2)nc1)n1cc(NC(=O)c2cncc(-c3c(C(F)F)ccc(Cl)c3F)n2)cn1` (stereo partly drawn) [Example 174, 6-(3-Chloro-6-(difluoromethyl)-2-fluorophenyl)-N-(1-(1-(2-((S)-2-((3-hydroxy-3-methylazetidin-1-yl)methyl)azetidin-1-yl)pyrimidin-5-yl)ethyl)-1H-pyrazol-4-yl)pyrazine-2-carboxamide], the IC50 is 2.3 nM. This IC50 and that of the compound before are within 1.5-fold of each other.
